Source: ChEMBL document CHEMBL5360657, “Discovery of the TLR7/8 Antagonist MHV370 for Treatment of Systemic Autoimmune Diseases” (ACS Med Chem Lett, 2023)

Experiments:
[1] = molecular target: T1, Toll-like receptor 9 (Homo sapiens, UniProt Q9NR96); assay: Antagonist activity at TLR9 in human Whole blood cell assessed as reduction in IFN-alpha level measured after 30 mins; assay type: tissue-based
T1 sequence (Q9NR96 whole entry): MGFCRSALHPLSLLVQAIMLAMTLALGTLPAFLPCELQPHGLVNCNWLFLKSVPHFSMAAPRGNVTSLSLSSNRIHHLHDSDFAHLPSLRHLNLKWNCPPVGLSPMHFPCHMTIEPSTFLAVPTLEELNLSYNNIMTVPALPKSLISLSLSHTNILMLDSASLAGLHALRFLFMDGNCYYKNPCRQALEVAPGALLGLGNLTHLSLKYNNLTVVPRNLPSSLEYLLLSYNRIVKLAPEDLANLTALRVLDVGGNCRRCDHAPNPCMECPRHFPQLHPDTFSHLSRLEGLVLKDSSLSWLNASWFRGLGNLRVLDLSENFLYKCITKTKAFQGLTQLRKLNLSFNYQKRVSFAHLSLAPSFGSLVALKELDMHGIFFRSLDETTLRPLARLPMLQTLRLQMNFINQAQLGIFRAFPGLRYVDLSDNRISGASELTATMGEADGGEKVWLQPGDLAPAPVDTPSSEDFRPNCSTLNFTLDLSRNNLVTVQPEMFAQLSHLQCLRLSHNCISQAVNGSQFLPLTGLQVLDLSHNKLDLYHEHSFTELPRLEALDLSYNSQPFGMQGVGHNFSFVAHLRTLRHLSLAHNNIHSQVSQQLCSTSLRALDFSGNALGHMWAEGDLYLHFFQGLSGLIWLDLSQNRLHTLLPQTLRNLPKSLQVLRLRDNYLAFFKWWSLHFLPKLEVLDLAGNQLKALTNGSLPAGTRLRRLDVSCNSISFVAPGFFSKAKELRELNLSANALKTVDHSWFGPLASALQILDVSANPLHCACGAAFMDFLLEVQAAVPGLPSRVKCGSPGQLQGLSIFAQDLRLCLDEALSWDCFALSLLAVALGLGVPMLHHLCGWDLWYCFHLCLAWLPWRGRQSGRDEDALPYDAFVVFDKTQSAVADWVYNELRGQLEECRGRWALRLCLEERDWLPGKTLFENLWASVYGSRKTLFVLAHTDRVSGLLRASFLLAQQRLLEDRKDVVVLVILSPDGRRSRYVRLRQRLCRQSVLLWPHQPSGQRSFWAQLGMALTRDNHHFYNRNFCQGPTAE

[2] = molecular target: Toll-like receptor 7 (Mus musculus) (UniProt P58681); assay: In vivo antagonist activity against TLR7 in po dosed mouse assessed as suppression of IL-6 level measured at 3 hrs by LC-MS/MS analysis; conditions: dose 1-30 mg/kg
[3] = molecular target: T2, Toll-like receptor 8 (Homo sapiens, UniProt Q9NR97); assay: Antagonist activity at TLR8 in human Whole blood cell […] assessed as reduction in IL-6 level measured after 30 mins; assay type: tissue-based
T2 sequence (Q9NR97 whole entry): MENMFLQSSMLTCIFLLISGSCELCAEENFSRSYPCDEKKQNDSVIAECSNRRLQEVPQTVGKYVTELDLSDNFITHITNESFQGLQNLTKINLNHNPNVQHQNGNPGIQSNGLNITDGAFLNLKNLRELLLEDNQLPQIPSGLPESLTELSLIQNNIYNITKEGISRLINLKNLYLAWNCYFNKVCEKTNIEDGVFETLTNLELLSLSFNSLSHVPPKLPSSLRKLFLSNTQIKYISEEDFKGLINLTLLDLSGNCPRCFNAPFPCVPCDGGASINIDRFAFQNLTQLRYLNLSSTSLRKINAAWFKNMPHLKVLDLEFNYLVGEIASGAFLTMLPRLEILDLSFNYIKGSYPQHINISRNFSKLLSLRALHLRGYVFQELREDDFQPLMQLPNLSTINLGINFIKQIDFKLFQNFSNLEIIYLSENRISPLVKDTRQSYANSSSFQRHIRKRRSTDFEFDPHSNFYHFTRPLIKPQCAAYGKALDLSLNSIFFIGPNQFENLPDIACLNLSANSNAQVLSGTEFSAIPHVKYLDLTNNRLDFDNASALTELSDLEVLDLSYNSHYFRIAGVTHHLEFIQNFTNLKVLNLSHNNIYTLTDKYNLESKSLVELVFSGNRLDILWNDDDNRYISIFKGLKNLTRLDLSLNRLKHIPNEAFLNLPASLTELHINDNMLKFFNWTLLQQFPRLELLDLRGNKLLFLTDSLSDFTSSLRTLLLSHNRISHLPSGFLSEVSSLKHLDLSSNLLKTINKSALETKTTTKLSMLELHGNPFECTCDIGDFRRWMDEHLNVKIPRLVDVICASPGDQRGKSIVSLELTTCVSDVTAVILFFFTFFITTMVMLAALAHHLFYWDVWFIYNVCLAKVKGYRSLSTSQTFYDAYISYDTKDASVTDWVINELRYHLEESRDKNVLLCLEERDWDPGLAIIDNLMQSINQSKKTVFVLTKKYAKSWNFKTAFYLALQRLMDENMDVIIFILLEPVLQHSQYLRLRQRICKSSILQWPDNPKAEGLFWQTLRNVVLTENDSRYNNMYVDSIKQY

[4] = molecular target: Cytochrome P450 2D6 (Homo sapiens, UniProt P10635); assay: Inhibition of CYP2D6 (unknown origin); assay type: ADME
[5] = Solubility of the compound; assay type: physicochemical
[6] = AUC in mouse at 3 mg/kg, iv; assay type: ADME, organism-based; parameters: dose 3 mg/kg, route iv; conditions: in vivo
[7] = AUC in mouse at 20 mg/kg, po; assay type: ADME, organism-based; parameters: dose 20 mg/kg, route po; conditions: in vivo

Sequence of Cytochrome P450 2D6 (P10635 whole entry): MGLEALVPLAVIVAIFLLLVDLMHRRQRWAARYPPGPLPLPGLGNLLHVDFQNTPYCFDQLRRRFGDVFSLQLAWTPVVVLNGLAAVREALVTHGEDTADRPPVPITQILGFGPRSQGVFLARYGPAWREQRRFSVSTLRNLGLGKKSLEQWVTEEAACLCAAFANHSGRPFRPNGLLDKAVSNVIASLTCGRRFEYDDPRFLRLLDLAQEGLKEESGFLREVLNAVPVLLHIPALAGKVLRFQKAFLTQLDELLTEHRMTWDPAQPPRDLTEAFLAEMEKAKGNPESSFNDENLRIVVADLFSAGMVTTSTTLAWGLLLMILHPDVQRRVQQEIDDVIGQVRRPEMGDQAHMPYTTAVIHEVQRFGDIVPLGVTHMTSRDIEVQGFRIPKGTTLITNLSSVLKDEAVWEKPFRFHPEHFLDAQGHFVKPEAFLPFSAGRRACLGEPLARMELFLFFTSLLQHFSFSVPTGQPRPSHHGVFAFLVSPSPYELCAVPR

Structure (SMILES)	IC50 [1]	Activity [2]	IC50 [3]	IC50 [4]	solubility [5]	AUC [6]	AUC [7]
Cc1cc(N2CCc3c(c(C)nn3CC34CCC(NC(=O)[C@@H]5COCCN5)(CC3)CC4)C2)c2cnn(C)c2n1 [MHV-370]	1200 nM	Dose-Dependent Effect	74 nM				
Cc1cc(N2CCc3c(c(C)nn3CC34CCC(N)(CC3)CC4)C2)c2cnn(C)c2n1				> 25000 nM	> 175 µM	5.005 µM·h	1.15 µM·h
